Molecular target: T1, USP30 (Homo sapiens, UniProt Q70CQ3)
T1 construct: We next determined cellular engagement of endogenous USP30 with IMP-2587 or IMP-2586; endogenous in cells; host or cells: HEK293T
T1 sequence (Q70CQ3 1-517): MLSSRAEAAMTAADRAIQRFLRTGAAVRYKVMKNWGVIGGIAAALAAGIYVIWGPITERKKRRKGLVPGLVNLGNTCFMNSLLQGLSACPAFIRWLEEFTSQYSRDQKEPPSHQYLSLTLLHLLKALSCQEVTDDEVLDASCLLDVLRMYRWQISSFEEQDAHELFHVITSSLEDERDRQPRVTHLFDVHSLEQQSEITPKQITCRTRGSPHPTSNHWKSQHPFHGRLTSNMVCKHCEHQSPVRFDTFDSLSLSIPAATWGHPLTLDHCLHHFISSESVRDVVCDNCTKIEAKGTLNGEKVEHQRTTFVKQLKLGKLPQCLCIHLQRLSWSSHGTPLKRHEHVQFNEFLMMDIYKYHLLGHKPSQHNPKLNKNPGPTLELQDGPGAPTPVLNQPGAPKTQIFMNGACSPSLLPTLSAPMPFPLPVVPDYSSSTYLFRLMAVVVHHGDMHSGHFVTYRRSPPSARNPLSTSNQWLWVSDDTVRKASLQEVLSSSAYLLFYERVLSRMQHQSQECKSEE
Test: Direct target engagement in HEK293T cells: CuAAC ligation and in-gel fluorescence
Type: cell-based
Details: for probe concentration for detection of USP30 activity in intact cells: following 1 hour incubation
Description: We next determined cellular engagement of endogenous USP30 with IMP-2587 or IMP-2586. […] In-cell concentration-dependent competition by IMP-2587 and IMP-2586 for USP30 were confirmed below 100 nM probe (Fig. 2b and c), whilst engagement of an exemplar unrelated DUB, UCHL1, occurred only at a much higher concentration (30 000 nM). We hypothesise that incomplete modification of USP30 by HA-Ub-VME is likely due to limited retention of USP30 activity in cell lysates, which have likely had the USP30 transmembrane domain compromised, highlighting the potential utility of a small molecule USP30 ABP applicable directly in intact cells. Direct USP30 target engagement by IMP-2587 and IMP-2586 was confirmed in HEK293T cells following 1 h probe treatment followed by cell lysis and CuAAC bio-orthogonal ligation to capture reagent azido-TAMRA-biotin (AzTB) for IMP-2587 or alkyne-TAMRA-biotin for IMP-2586 (Fig. 3a).[27] […] This unspecific background labelling is presumably due to the previously reported higher off-target CuAAC reactivity of an alkyne-bearing capture reagent, applied here due to incorporation of an azide tag in IMP-2586.[28] Moreover, the labelling of USP30 was further confirmed by biotin pulldown and immunoblotting. […]
d) Live cell probe incubation, lysate click chemistry and precipitation 6-well HEK293T cells were incubated with media containing compounds ABP 2 and ABP 4 at indicated concentrations for 1 h at 37 °C. The cells were washed with PBS and lysed with lysis buffer (50 μL (1% (v/v) Triton X-100, 0.1% (w/v) sodium dodecyl sulfate (SDS), EDTA-free complete protease inhibitor cocktail (1×, Roche) in PBS on ice for 10 min. The lysates were scraped and transferred to corresponding Lo-Bind Eppendorfs. Each lysate was sonicated for 1 minute, and the samples centrifuges at 5,000 x g at 4 °C for 5 minutes to pellet insoluble cellular debris. The supernatant was collected, and protein concentration was determined using the DC Protein Assay (Bio-Rad) as per manufacturer’s instructions, and normalised to lowest concentrated sample (e.g. 1 mg/mL, using lysis buffer). The following “click mixture” was prepared separately, preparing 6 μL for every 100 μL of […]
Capture reagent (AzRB/AzT for ABP 2, YnT/YnB for ABP 4 10 mM in DMSO, 1 vol; final concentration […]
The lysate samples (10-20 μg) were mixed with 4× Laemmli sample loading buffer (250 mM Tris -HCl pH 6.8, 30% (v/v) glycerol, 10% (w/v) SDS, 0.05% (w/v) bromophenol blue) supplemented with 20% v/v β-mercaptoethanol (BME) and boiled for 10 min at 95 °C. […] Gel were imaged on a Typhoon imager (GE Healthcare; λEx 532 nm, λEm 575 nm for TAMRA. For protein loading quantification, gels were stained with Coomassie blue staining solution overnight, rinsed with water and imaged on an ImageQuant™ […]

[1] = HEK293T, 1 h probe treatment, CuAAC to AzTB

Row | Compound | probe concentration for detection of USP30 activity in intact cells | lowest probe concentration showing major band at ca. 60 kDa (in-gel fluorescence) [1] | probe concentration above which additional bands are labelled (in-gel fluorescence) [1]
1 | N#CN1CC[C@@H](NC(=O)c2cc(-c3ccccc3Oc3ccc(N=[N+]=[N-])cc3)n[nH]2)C1 [IMP-2586] | 3 to 10 nM | – | –
2 | C#Cc1cccc(-c2cc(NC(=O)CC3CCN(C#N)C3)on2)c1 (stereo not shown) [IMP-2587] | 3 to 10 nM | 3 nM | above 30 nM

Reference: publication PMC11078216, “Discovery of potent and selective activity-based probes (ABPs) for the deubiquitinating enzyme USP30” (RSC Chemical Biology, 2024)
